Structures can show the parent of a compound that is named as a salt.
| SMILES | melting point |
| --- | --- |
| O=C(NCc1ccncc1)c1cc2ccnc(NCc3ccccc3)c2[nH]1 [Example 42, 7-(Benzylamino)-N-(4-pyridinylmethyl)-1H-pyrrolo[2,3-c]pyridine-2-carboxamide] | 199 to 200 °C |
| O=C(NCc1ccccn1)c1cc2ccncc2[nH]1 [Example 27, N-(2-Pyridinylmethyl)-1H-pyrrolo[2,3-c]pyridine-2-carboxamide] | 230 to 236 °C |
| Cc1ccc(/C(=N/OCCN)c2cc3ccncc3[nH]2)cc1 (single isomer, unassigned) (as salt: trifluoroacetate) [Example 119, (4-Methylphenyl)(1H-pyrrolo[2,3-c]pyridin-2-yl)methanone O-(2-aminoethyl)oxime bis(hydrogen trifluoroacetate)] | 190 to 194 °C |
| CON=C(c1ccccc1)c1cc2ccncc2[nH]1.Cl [Example 120] | 202 to 203 °C |
| CC(C)C/C(=N\NC(=N)N)c1cc2ccncc2[nH]1 (as salt: hydrochloride) | 232 to 236 °C |
| O=C(NCc1cccnc1)c1cc2ccnc(Cl)c2[nH]1 [Example 5, 7-Chloro-N-(3-pyridinylmethyl)-1H-pyrrolo[2,3-c]pyridine-2-carboxamide] | 189 to 191 °C |
| O=C(c1cc2ccnc(Cl)c2[nH]1)N1CCOCC1 [Example 3, 7-Chloro-2-(4-morpholinylcarbonyl)-1H-pyrrolo[2,3-c]pyridine] | 170 to 171 °C |
| O=C(c1ccccc1)c1cc2ccnc(N(Cc3ccccc3)Cc3ccccc3)c2[nH]1 [Example 47, [7-(Dibenzylamino)-1H-pyrrolo[2,3-c]pyridin-2-yl](phenyl)methanone] | 122 to 124 °C |
| O=C(Nc1cccnc1)c1cc2ccncc2[nH]1 [Example 30, N-(3-Pyridinyl)-1H-pyrrolo[2,3-c]pyridine-2-carboxamide] | 270 to 290 °C |
| COc1ccc(C(O)c2cc3ccncc3[nH]2)cc1 (stereo not shown) [Example 99, (4-Methoxyphenyl)(1H-pyrrolo[2,3-c]pyridin-2-yl)methanol] | 183 to 185 °C (dec.) |
| COc1ccc(/C(=N/OCCN)c2cc3ccncc3[nH]2)cc1 (single isomer, unassigned) (as salt: hydrochloride) [Example 124, (4-Methoxyphenyl)(1H-pyrrolo[2,3-c]pyridin-2-yl)methanone O-(2-aminoethyl)oxime dihydrochloride] | 178 to 184 °C |
| O/N=C(\c1ccccc1)c1cc2ccncc2[nH]1 [Example 39, Phenyl(1H-pyrrolo[2,3-c]pyridin-2-yl)methanone oxime] | 132 to 142 °C |
| CC(N)c1cc2ccncc2[nH]1 (stereo not shown) (as salt: hydrochloride) [Example 75, 1-(1H-Pyrrolo[2,3-c]pyridin-2-yl)ethylamine dihydrochloride] | 289 to 292 °C |
| CC(C)C(O)c1cc2ccncc2[nH]1 (stereo not shown) [Example 78, 2-Methyl-1-(1H-pyrrolo[2,3-c]pyridin-2-yl)-1-propanol] | 140 to 144 °C |
| C/C(=N\NC(=N)N)c1cc2ccncc2[nH]1 (as salt: hydrochloride) [Example 71, [[1-(1H-Pyrrolo[2,3-c]pyridin-2-yl)ethylidene]amino]guanidine dihydrochloride] | 314 to 318 °C (dec.) |
| O=C(c1cc2ccncc2[nH]1)N1CCCC1 [Example 33, 2-(1-Pyrrolidinylcarbonyl)-1H-pyrrolo[2,3-c]pyridine] | 260 to 275 °C (dec.) |
| O=C(Nc1ccncc1)c1cc2ccnc(Cl)c2[nH]1 [Example 22, 7-Chloro-N-(4-pyridinyl)-1H-pyrrolo[2,3-c]pyridine-2-carboxamide] | > 320 °C |
| O=C(c1ccoc1)c1cc2ccncc2[nH]1 [Example 137, 3-Furyl(1H-pyrrolo[2,3-c]pyridin-2-yl)methanone] | 232 to 236 °C (dec.) |
| CC(C)(C)OC(=O)NCCO/N=C(\c1ccc(Cl)cc1)c1cc2ccncc2[nH]1 (single isomer, unassigned) [Example 116, tert-Butyl 2-[[[(4-chlorophenyl)(1H-pyrrolo[2,3-c]pyridin-2-yl)methylene]amino]oxy]ethylcarbamate] | 166 to 169 °C |
| OC(c1ccccc1)c1cc2ccncc2[nH]1 (stereo not shown) [Example 52, Phenyl(1H-pyrrolo[2,3-c]pyridin-2-yl)methanol] | 178 to 180 °C |
| Cl.Cl.c1ccc(C(=NOC2CCCNC2)c2cc3ccncc3[nH]2)cc1 (single isomer, unassigned) | 240 to 245 °C (dec.) |
| Cl.NCCCO/N=C(\c1ccccc1)c1cc2ccncc2[nH]1 | 168 to 174 °C (dec.) |
| N=C(N)NN=C(c1ccccc1)c1cc2ccncc2[nH]1 (as salt: hydrochloride) | 306 to 310 °C |
| CC(=O)N1CCN(C(=O)c2cc3ccnc(Cl)c3[nH]2)CC1 [Example 12, 2-[(4-Acetyl-1-piperazinyl)carbonyl]-7-chloro-1H-pyrrolo[2,3-c]pyridine] | 179 to 184 °C |
| Cl.Clc1nccc2cc(CNCCN3CCOCC3)[nH]c12 | 146 to 150 °C |

| SMILES | melting point |
| --- | --- |
| CC(C)/C(=N\NC(=N)N)c1cc2ccncc2[nH]1 (as salt: hydrochloride) | 242 to 245 °C |
| Clc1nccc2cc(C(NCc3ccccc3)c3ccccc3)[nH]c12 (stereo not shown) (as salt: hydrochloride) [Example 34, N-Benzyl-N-[(7-chloro-1H-pyrrolo[2,3-c]pyridin-2-yl)(phenyl)methyl]amine dihydrochloride] | 170 to 185 °C (dec.) |
| NCCON=C(c1ccc(Cl)c(Cl)c1)c1cc2ccncc2[nH]1 (as salt: trifluoroacetate) [Example 134, (3,4-Dichlorophenyl)(1H-pyrrolo[2,3-c]pyridin-2-yl)methanone O-(2-aminoethyl)oxime bis(hydrogen trifluoroacetate)] | 64 to 68 °C |
| O=C(NCc1cccs1)c1cc2ccnc(N(Cc3ccccc3)Cc3ccccc3)c2[nH]1 [Example 38, 7-(Dibenzylamino)-N-(2-thienylmethyl)-1H-pyrrolo[2,3-c]pyridine-2-carboxamide] | 152 to 154 °C |
| CNCc1cc2ccnc(Cl)c2[nH]1.Cl | 264 to 266 °C (dec.) |
| CC(C)(C)OC(=O)N1CCC(ON=C(c2ccccc2)c2cc3ccncc3[nH]2)C1 (stereo not shown) [Example 90, tert-Butyl 3-[[[phenyl(1H-pyrrolo[2,3-c]pyridin-2-yl)methylene]amino]oxy]pyrrolidine-1-carboxylate] | 80 to 82 °C |
| CC(C)(C)OC(=O)NCCO/N=C(\c1ccccc1)c1cc2ccncc2[nH]1 [Example 60, tert-Butyl 2-[[[phenyl(1H-pyrrolo[2,3-c]pyridin-2-yl)methylene]amino]oxy]ethylcarbamate] | 84 to 88 °C |
| OC(CCc1ccccc1)c1cc2ccncc2[nH]1 (stereo not shown) [Example 83, 3-Phenyl-1-(1H-pyrrolo[2,3-c]pyridin-2-yl)propan-1-ol] | 162 to 166 °C |
| O=C(NC(c1ccccc1)c1cc2ccncc2[nH]1)c1ccccn1 (stereo not shown) [Example 50, N-[Phenyl (1H-pyrrolo[2,3-c]pyridin-2-yl)methyl]-2-pyridinecarboxamide] | 102 to 110 °C |
| CON=C(c1ccccc1)c1cc2ccncc2[nH]1.Cl [Example 121] | 220 to 222 °C |
| O=C(c1cc2ccnc(Cl)c2[nH]1)N1CCCC1 [Example 13, 7-Chloro-2-(1-pyrrolidinylcarbonyl)-1H-pyrrolo[2,3-c]pyridine] | 152 to 154 °C |
| OC(c1ccccn1)c1cc2ccncc2[nH]1 (stereo not shown) [Example 117, (Pyridin-2-yl)(1H-pyrrolo[2,3-c]pyridin-2-yl)methanol] | 166 to 169 °C |
| c1ccc(C(=NOC2CCCNC2)c2cc3ccncc3[nH]2)cc1 (single isomer, unassigned) (as salt: hydrochloride) | 240 to 245 °C (dec.) |
| NCc1cc2ccncc2[nH]1 (as salt: hydrochloride) | 302 to 303 °C |
| CC(C)(C)OC(=O)CO/N=C(\c1ccccc1)c1cc2ccncc2[nH]1 [Example 58, tert-Butyl[[[phenyl(1H-pyrrolo[2,3-c]pyridin-2-yl)methylene]amino]oxy]acetate] | 47 to 52 °C |
| NC(c1ccccc1)c1cc2ccncc2[nH]1 (stereo not shown) (as salt: hydrochloride) [Example 40, 1-Phenyl-1-(1H-pyrrolo[2,3-c]pyridin-2-yl)methylamine dihydrochloride] | 240 to 250 °C |
| O=C(O)CO/N=C(\c1ccccc1)c1cc2ccncc2[nH]1 [Example 66, [[[Phenyl(1H-pyrrolo[2,3-c]pyridin-2-yl)methylene]amino]oxy]acetic acid] | 68 to 73 °C |
| OC(c1ccc(Cl)cc1)c1cc2ccncc2[nH]1 (stereo not shown) [Example 101, (4-Chlorophenyl)(1H-pyrrolo[2,3-c]pyridin-2-yl)methanol] | 176 to 180 °C |
| O=C(c1ccc(Cl)cc1)c1cc2ccncc2[nH]1 [Example 103, (4-Chlorophenyl)(1H-pyrrolo[2,3-c]pyridin-2-yl)methanone] | 274 to 277 °C (dec.) |
| CC(C)C(=O)c1cc2ccncc2[nH]1 [Example 80, 2-Methyl-1-(1H-pyrrolo[2,3-c]pyridin-2-yl)-1-propanone] | 224 to 228 °C |
| O=C(NCc1ccncc1)c1cc2ccnc(Cl)c2[nH]1 [Example 6, 7-Chloro-N-(4-pyridinylmethyl)-1H-pyrrolo[2,3-c]pyridine-2-carboxamide] | > 340 °C |
| CC(C)CC(O)c1cc2ccncc2[nH]1 (stereo not shown) [Example 79, 3-Methyl-1-(1H-pyrrolo[2,3-c]pyridin-2-yl)-1-butanol] | 182 to 189 °C (dec.) |
| NCCO/N=C(/c1ccc(Cl)cc1)c1cc2ccncc2[nH]1 (single isomer, unassigned) (as salt: trifluoroacetate) [Example 126, (4-Chlorophenyl)(1H-pyrrolo[2,3-c]pyridin-2-yl)methanone O-(2-aminoethyl)oxime bis(hydrogen trifluoroacetate)] | 146 to 150 °C |
| Cl.Clc1nccc2cc(CNC3CCCC3)[nH]c12 | 241 to 244 °C |

Reference: US7608627B2, “6-azaindole compound” (Takeda Pharmaceutical Company Limited, priority 2005, dated 2009)
